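Where inhibition never reached the appropriate level, the endpoint shown equals the highest concentration tested. Otherwise, values were interpolated linearly from a five-concentration, 48-hour dose response in 96-well plates. At the GI50, growth is halved. TGI: total growth inhibition.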
Columns and labels:
Test in all cases: NCI anticancer screen, dose series, 48 h
[1] = test system: T-47D breast
[2] = test system: DU-145 prostate
[3] = test system: PC-3 prostate
[4] = test system: HL-60(TB) leukemia
[5] = test system: BT-549 breast
[6] = test system: SW-620 colon
[7] = test system: SK-MEL-28 melanoma
[8] = test system: NCI/ADR-RES ovarian
[9] = test system: ACHN renal
[10] = test system: OVCAR-3 ovarian
[11] = test system: NCI-H460 lung
[12] = test system: K-562 leukemia
[13] = test system: A498 renal
[14] = test system: RPMI-8226 leukemia
[15] = test system: SR leukemia
[16] = test system: EKVX NSCLC
[17] = test system: HCT-15 colon
[18] = test system: SF-539 CNS
[19] = test system: 786-0 renal
[20] = test system: MDA-MB-231 breast
[21] = test system: MOLT-4 leukemia
[22] = test system: OVCAR-5 ovarian
[23] = test system: SNB-19 CNS
[24] = test system: LOX IMVI melanoma
[25] = test system: UO-31 renal
[26] = test system: COLO 205 colon
[27] = test system: HOP-92 NSCLC
[28] = test system: CAKI-1 renal
[29] = test system: NCI-H226 lung
[30] = test system: A549 NSCLC
[31] = test system: OVCAR-8 ovarian
[32] = test system: SF-295 CNS
[33] = test system: SNB-75 CNS
[34] = test system: MALME-3M melanoma
[35] = test system: SF-268 CNS
[36] = test system: UACC-257 melanoma
[37] = test system: TK-10 renal
[38] = test system: CCRF-CEM leukemia
[39] = test system: OVCAR-4 ovarian
[40] = test system: RXF 393 renal
[41] = test system: SK-MEL-2 melanoma
[42] = test system: HOP-62 NSCLC
[43] = test system: HT29 colon
[44] = test system: HCT-116 colon
[45] = test system: MCF7 breast
[46] = test system: KM12 colon
[47] = test system: IGROV1 ovarian
[48] = test system: SK-OV-3 ovarian
[49] = test system: SN12C renal
[50] = test system: HCC-2998 colon
[51] = test system: NCI-H522 lung
[52] = test system: SK-MEL-5 melanoma
[53] = test system: U251 CNS
[54] = test system: HS 578T breast
[55] = test system: UACC-62 melanoma
[56] = test system: M14 melanoma

SMILES: CCOC(=O)Nc1cccc(-n2cnc3cc(-c4ccc(O)cc4)ccc32)c1
- GI50 [1]: 940 nM
- TGI [1]: > 29300 nM
- GI50 [2]: 391 nM
- TGI [2]: > 45300 nM
- GI50 [3]: 145 nM
- TGI [3]: > 100000 nM
- GI50 [4]: 36 nM
- TGI [4]: 1210 nM
- GI50 [5]: 132 nM
- TGI [5]: 4400 nM
- GI50 [6]: 64.7 nM
- TGI [6]: > 47400 nM
- GI50 [7]: 1620 nM
- TGI [7]: > 45900 nM
- GI50 [8]: 84.9 nM
- TGI [8]: 25400 nM
- GI50 [9]: 260 nM
- TGI [9]: > 67400 nM
- GI50 [10]: 56.2 nM
- TGI [10]: 2170 nM
- GI50 [11]: 192 nM
- TGI [11]: > 34200 nM
- GI50 [12]: 42.6 nM
- TGI [12]: > 100000 nM
- GI50 [13]: 697 nM
- TGI [13]: 4530 nM
- GI50 [14]: 342 nM
- TGI [14]: 3780 nM
- GI50 [15]: 32 nM
- TGI [15]: > 45200 nM
- GI50 [16]: 885 nM
- TGI [16]: > 47800 nM
- GI50 [17]: 44.7 nM
- TGI [17]: > 37800 nM
- GI50 [18]: 182 nM
- TGI [18]: 15000 nM
- GI50 [19]: 719 nM
- TGI [19]: > 54800 nM
- GI50 [20]: 267 nM
- TGI [20]: > 67400 nM
- GI50 [21]: 114 nM
- TGI [21]: 37200 nM
- GI50 [22]: 600 nM
- TGI [22]: > 75100 nM
- GI50 [23]: 313 nM
- TGI [23]: > 100000 nM
- GI50 [24]: 245 nM
- TGI [24]: > 39900 nM
- GI50 [25]: 388 nM
- TGI [25]: > 36900 nM
- GI50 [26]: 232 nM
- TGI [26]: > 34600 nM
- GI50 [27]: 1450 nM
- TGI [27]: 13600 nM
- GI50 [28]: 343 nM
- TGI [28]: > 76800 nM
- GI50 [29]: 1260 nM
- TGI [29]: 6770 nM
- GI50 [30]: 380 nM
- TGI [30]: > 45600 nM
- GI50 [31]: 302 nM
- TGI [31]: > 33700 nM
- GI50 [32]: 102 nM
- TGI [32]: > 100000 nM
- GI50 [33]: 48.6 nM
- TGI [33]: > 41100 nM
- GI50 [34]: 774 nM
- TGI [34]: > 48800 nM
- GI50 [35]: 2190 nM
- TGI [35]: > 71600 nM
- GI50 [36]: 1270 nM
- TGI [36]: > 42500 nM
- GI50 [37]: 1470 nM
- TGI [37]: > 64800 nM
- GI50 [38]: 144 nM
- TGI [38]: > 100000 nM
- GI50 [39]: 1580 nM
- TGI [39]: > 55800 nM
- GI50 [40]: 157 nM
- TGI [40]: 681 nM
- GI50 [41]: 204 nM
- TGI [41]: > 43800 nM
- GI50 [42]: 770 nM
- TGI [42]: > 59800 nM
- GI50 [43]: 143 nM
- TGI [43]: 1100 nM
- GI50 [44]: 141 nM
- TGI [44]: > 46200 nM
- GI50 [45]: 141 nM
- TGI [45]: > 35700 nM
- GI50 [46]: 283 nM
- TGI [46]: 6020 nM
- GI50 [47]: 561 nM
- TGI [47]: > 46500 nM
- GI50 [48]: 618 nM
- TGI [48]: > 72000 nM
- GI50 [49]: 498 nM
- TGI [49]: > 55000 nM
- GI50 [50]: 310 nM
- TGI [50]: > 66700 nM
- GI50 [51]: 56.1 nM
- TGI [51]: 333 nM
- GI50 [52]: 167 nM
- TGI [52]: 2370 nM
- GI50 [53]: 158 nM
- TGI [53]: > 47100 nM
- GI50 [54]: 317 nM
- TGI [54]: > 30700 nM
- GI50 [55]: 367 nM
- TGI [55]: > 36900 nM
- GI50 [56]: 63.4 nM
- TGI [56]: > 37800 nM
